Patent US8501770B2 (ArQule, Inc., priority 2009, dated 2013)

Legend:
[1] = target: T1, Full-length inactive AKT1 (Homo sapiens, UniProt P31749); assay: Inactive Akt HTRF Assay (Akt1)
Procedure: AKT1 activity was assayed using CisBio KinEASE™ HTRF Assay technology. This technology utilizes a proprietary biotinylated peptide substrate (STKS3), streptavidin labeled XL665 antibody, and STK antibody-Eu^3+-cryptate. AKT1 activation was achieved by the addition of the activating kinases PDK1 and MAPKAPK2, lipid vesicles, and ATP. The extent of STKS3 biotinylated peptide phosphorylation was determined using a phospho-STK antibody-Eu^3+-cryptate and streptavidin labeled XL665 antibody. XL665 was stimulated by Eu^3+-cryptate resulting in a TR-FRET signal proportional to the SKS3 phosphorylation level.

Zr75-1 = assay: MTS Assay, cell proliferation, Zr75-1; format: cell-based; conditions: Homo sapiens, ZR-75-1, read-out: Average of [CELL], IC50, MTS (72 hours; 10 Percent; FBS) Zr75-1
Procedure: (§1) Cell proliferation analysis. Cell survival was determined by the MTS assay. Briefly, cells were plated in a 96-well plate at 2,000-10,000 cells per well, cultured for 24 hours in complete growth medium, and then treated with various drugs and drug combinations for 72 hours. MTS was added and incubated for 4 hour, followed by assessment of cell viability using the microplate reader at 570 nm. Data were normalized to untreated controls and analyzed with Microsoft Excel.

A2780 = assay: MTS Assay, cell proliferation, A2780; format: cell-based; conditions: Homo sapiens, read-out: Average of [CELL], IC50, MTS (72 hours; 10 Percent; FBS) A2780
Procedure: as §1

BT474 = assay: MTS Assay, cell proliferation, BT474; format: cell-based; conditions: Homo sapiens, BT-474, read-out: Average of [CELL], IC50, MTS (72 hours; 10 Percent; FBS) BT474
Procedure: as §1

LnCap = assay: MTS Assay, cell proliferation, LnCap; format: cell-based; conditions: Homo sapiens, read-out: Average of [CELL], IC50, MTS (72 hours; 10 Percent; FBS) LnCap
Procedure: as §1

IGROV = assay: MTS Assay, cell proliferation, IGROV; format: cell-based; conditions: read-out: Average of [CELL], IC50, MTS (72 hours; 10 Percent; FBS) IGROV
Procedure: as §1

AN3CA = assay: MTS Assay, cell proliferation, AN3CA; format: cell-based; conditions: Homo sapiens, AN3-CA, read-out: Average of [CELL], IC50, MTS (72 hours; 10 Percent; FBS) AN3CA
Procedure: as §1

[2] = target: T1, Full-length inactive AKT1; assay: Inactive Akt Alpha Screen Assay; format: biochemical; conditions: values not marked with "*"; read-out: Akt1 IC50, (AlphaScreen)
Method in brief: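 AlphaScreen read-out (excitation 640 nm, emission 570 nm) after 90 min incubation at room temperature in the dark. Signal comes from crosstide phosphorylation by AKT1, which was activated by added PDK1, MAPKAPK2, ATP and lipid vesicles, captured via phospho-AKT substrate antibody and streptavidin beads.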

T1 sequence (P31749 whole entry): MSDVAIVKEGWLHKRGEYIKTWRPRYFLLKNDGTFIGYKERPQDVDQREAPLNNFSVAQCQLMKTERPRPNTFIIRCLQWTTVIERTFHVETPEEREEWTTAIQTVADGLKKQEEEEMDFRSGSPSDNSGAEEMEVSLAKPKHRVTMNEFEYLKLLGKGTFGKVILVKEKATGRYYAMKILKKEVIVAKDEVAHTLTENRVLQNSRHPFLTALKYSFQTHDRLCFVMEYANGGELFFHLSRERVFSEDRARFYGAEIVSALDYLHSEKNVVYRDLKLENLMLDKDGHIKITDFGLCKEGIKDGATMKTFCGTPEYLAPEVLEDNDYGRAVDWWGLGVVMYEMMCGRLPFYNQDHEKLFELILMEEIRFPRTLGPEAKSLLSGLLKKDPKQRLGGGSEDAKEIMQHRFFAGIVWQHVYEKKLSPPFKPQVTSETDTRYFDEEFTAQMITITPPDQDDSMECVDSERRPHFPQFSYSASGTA

Row | IC50 [1] | IC50 (A2780) | IC50 (BT474) | IC50 (LnCap) | IC50 [2] | Compound | IC50 (Zr75-1) | IC50 (IGROV) | IC50 (AN3CA)
1 | 3.96 µM | – | – | – | – | Nc1ncccc1-c1nc2cccnc2n1-c1ccc(CC(=O)Nc2ccc(Cl)cn2)cc1 [Example 117, 2-{4-[2-(2-aminopyridin-3-yl)-3H-imidazo[4,5-b]pyridin-3-yl]phenyl}-N-(5-chloropyridin-2-yl)acetamide] | – | – | –
2 | 7.1 µM | – | – | – | – | Nc1ncccc1-c1nc2cc(-c3ccccc3Br)cnc2n1-c1ccc(CNC(=O)c2ccccc2)cc1 [Example 136, N-{4-[2-(2-aminopyridin-3-yl)-6-(2-bromophenyl)-3H-imidazo[4,5-b]pyridin-3-yl]benzyl}benzamide] | – | – | –
3 | 4.5 µM | – | – | – | – | Cc1ccc(-c2cnc3c(c2)nc(-c2cccnc2N)n3-c2ccc(CNC(=O)c3ccccc3)cc2)cc1 [Example 144, N-{4-[2-(2-aminopyridin-3-yl)-6-(4-methylphenyl)-3H-imidazo[4,5-b]pyridin-3-yl]benzyl}benzamide] | – | – | –
4 | – | 2.9 µM | 3.6 µM | 4.9 µM | 0.035 µM | Nc1ncccc1-c1nc2ccc(-c3ccoc3)nc2n1-c1ccc(CNC(=O)c2cccc(F)c2)cc1 [Example 307, N-(4-(2-(2-aminopyridin-3-yl)-5-(furan-3-yl)-3H-imidazo[4,5-b]pyridin-3-yl)benzyl)-3-fluorobenzamide] | 9.1 µM | – | 6.3 µM
5 | – | 2.3 µM | 1.8 µM | 2.6 µM | 0.021 µM | Nc1ncccc1-c1nc2ccc(-c3cccc(CO)c3)nc2n1-c1ccc(CNC(=O)c2cccc(F)c2)cc1 [Example 308, N-(4-(2-(2-aminopyridin-3-yl)-5-(3-(hydroxymethyl)phenyl)-3H-imidazo[4,5-b]pyridin-3-yl)benzyl)-3-fluorobenzamide] | 4.3 µM | – | 2.5 µM
6 | 82.8 µM | – | – | – | – | CC(C(=O)NCc1ccc(-n2c(-c3cccnc3N)nc3cccnc32)cc1)c1ccccc1 (centres unmarked) [Example 51, N-{4-[2-(2-aminopyridin-3-yl)-3H-imidazo[4,5-b]pyridin-3-yl]benzyl}-2-phenylpropanamide] | – | – | –
7 | 22.1 µM | – | – | – | – | Nc1ncccc1-c1nc2cccnc2n1-c1ccc(-n2cncn2)cc1 [Example 31] | – | – | –
8 | – | 6.3 µM | 2.5 µM | 4.2 µM | 0.014 µM | CC(=O)Nc1cccc(-c2ccc3nc(-c4cccnc4N)n(-c4ccc(CNS(=O)(=O)c5ccccc5)cc4)c3n2)c1 [Example 324, N-(3-(2-(2-aminopyridin-3-yl)-3-(4-(phenylsulfonamidomethyl)phenyl)-3H-imidazo[4,5-b]pyridin-5-yl)phenyl)acetamide] | 3.6 µM | – | 5 µM
9 | 7.1 µM | – | – | – | – | Nc1ncccc1-c1nc2cccnc2n1-c1ccc(C(=O)NCc2ccccc2)cc1 [Example 178, 4-[2-(2-aminopyridin-3-yl)-3H-imidazo[4,5-b]pyridin-3-yl]-N-benzylbenzamide] | – | – | –
10 | 7.8 µM | – | – | – | – | Nc1ncccc1-c1nc2cc(-c3ccc(F)cc3)cnc2n1-c1ccc(CNC(=O)c2ccccc2)cc1 [Example 141, N-{4-[2-(2-aminopyridin-3-yl)-6-(4-fluorophenyl)-3H-imidazo[4,5-b]pyridin-3-yl]benzyl}benzamide] | – | – | –
11 | – | 6.8 µM | 4.2 µM | 13 µM | 0.012 µM | Nc1ncccc1-c1nc2ccc(-c3cn[nH]c3)nc2n1-c1ccc(CNC(=O)c2cccc(F)c2)cc1 [Example 305, N-(4-(2-(2-aminopyridin-3-yl)-5-(1H-pyrazol-4-yl)-3H-imidazo[4,5-b]pyridin-3-yl)benzyl)-3-fluorobenzamide] | 8.2 µM | – | 12 µM
12 | 8.1 µM | – | – | – | – | Nc1ncccc1-c1nc2cc(Br)cnc2n1-c1ccc(CNS(=O)(=O)c2ccc3ccccc3c2)cc1 [Example 157, N-{4-[2-(2-aminopyridin-3-yl)-6-bromo-3H-imidazo[4,5-b]pyridin-3-yl]benzyl}naphthalene-2-sulfonamide] | – | – | –

Row | Compound | IC50 [1] | IC50 (A2780) | IC50 (BT474) | IC50 (LnCap) | IC50 [2] | IC50 (Zr75-1) | IC50 (IGROV) | IC50 (AN3CA)
13 | Nc1ncccc1-c1nc2ccc(-c3ccccc3)nc2n1-c1ccc(C2(N)CCC2)cc1 [Example 351, 3-(3-(4-(1-aminocyclobutyl)phenyl)-5-phenyl-3H-imidazo[4,5-b]pyridin-2-yl)pyridin-2-amine] | – | 0.72 µM | 1.3 µM | 2.1 µM | – | 4.2 µM | 1.7 µM | 0.62 µM
